Measurements as given in US7799785B2, “Substituted tetracyclic tetahydrofuran, pyrrolidine and tetrahydrothiophene derivatives” (Janssen Pharmaceutica NV, priority 2004, dated 2010).

Tested on: not given
Experiment: not given
In the case of `Fc1ccc2c(c1)[C@@H]1[C@H](C[C@@H]3CNC(=S)N31)c1ccccc1C2` [compound 8, (4aS,13bR,14aR)-6-fluoro-1,4a,9,13b,14,14a-hexahydrodibenzo[3′,4′:6′,7′]-cyclohepta[1′,2′:4,5]pyrrolo[1,2-c]imidazole-3(2H)-thione], the melting point is reported as 150 to 151 °C.
`O=C1CO[C@H]2c3cc(F)ccc3Cc3ccccc3[C@H]2C1` [compound 31, (4aR,13bR)-12-fluoro-4,4a,9,13b-tetrahydrodibenzo[3,4:6,7]cyclohepta[1,2-b]-pyran-3(2H)-one] gave a melting point of 146 to 148 °C.

Biological target: T1, NET (Rattus norvegicus, UniProt Q63380)
T1 construct: Cortex from rat brain was collected and homogenised; from tissue; host or cells: rat brain cortex homogenate/membranes
T1 sequence (Q63380 1-617): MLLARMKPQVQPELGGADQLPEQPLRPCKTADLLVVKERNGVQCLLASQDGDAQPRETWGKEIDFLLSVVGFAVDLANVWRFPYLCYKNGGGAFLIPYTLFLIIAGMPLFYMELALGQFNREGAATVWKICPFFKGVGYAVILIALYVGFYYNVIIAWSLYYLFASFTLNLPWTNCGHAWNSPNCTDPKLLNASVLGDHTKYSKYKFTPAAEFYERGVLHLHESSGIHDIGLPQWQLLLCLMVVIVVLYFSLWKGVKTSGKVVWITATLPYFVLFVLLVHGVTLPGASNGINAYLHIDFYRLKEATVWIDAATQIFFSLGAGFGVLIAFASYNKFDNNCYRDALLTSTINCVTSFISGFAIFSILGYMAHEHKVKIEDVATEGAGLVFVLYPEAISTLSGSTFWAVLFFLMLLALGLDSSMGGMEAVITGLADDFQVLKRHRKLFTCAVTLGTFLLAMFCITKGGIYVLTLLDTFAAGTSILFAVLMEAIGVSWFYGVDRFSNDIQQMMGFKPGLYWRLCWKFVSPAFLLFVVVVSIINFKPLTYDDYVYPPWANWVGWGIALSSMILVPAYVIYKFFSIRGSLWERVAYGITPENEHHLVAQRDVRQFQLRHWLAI
Experiment: In vitro determination of NET reuptake inhibition ([3H]Nixosetine binding, rat brain cortex membranes)
Description: In vitro Determination of NET Reuptake Inhibition
Cortex from rat brain was collected and homogenised using an Ultra-Turrax T25 and a Dual homogeniser in ice-cold homogenising buffer containing Tris, NaCl and KCl (50 mM, 120 mM and 5 mM, respectively, pH 7.4) prior to dilution to an appropriate protein concentration optimised for specific and non-specific binding. […] Membrane-bound activity was detected by filtration through a Packard Filtermate harvester onto GF/B Unifilterplates, washed with ice-cold Tris-HCl buffer, containing NaCl and KCl (50 mM, 120 mM and 4 mM; pH 7.4; 6×0.5 ml). Filters were allowed to dry for 24 h before adding scintillation fluid. Scintillation fluid was allowed to saturate filters for 24 h before counting in a Topcount scintillation counter. Percentage specific bound and competition binding curves were calculated using S-Plus software (Insightful).
Compound `CN(C)CC1CO[C@@H]2c3cc(F)ccc3Cc3ccccc3[C@@H]12` (mixture of isomers) [compound 47, [(3aR,12bS)-11-fluoro-3,3a,8,12b-tetrahydro-2H-dibenzo[3,4:6,7]cyclohepta[1,2-b]furan-3-yl]-N,N-dimethylmethanamine] has an IC50 of 0.011 µM.
`CN(C)CC1CO[C@H]2c3cc(F)ccc3Cc3ccccc3[C@@H]12` (mixture of isomers) [compound 48, [(3aR,12bR)-11-fluoro-3,3a,8,12b-tetrahydro-2H-dibenzo[3,4:6,7]cyclohepta[1,2-b]furan-3-yl]-N,N-dimethylmethanamine] showed an IC50 of 0.224 µM.
`CC(=O)N1[C@@H](CN(C)C)C[C@@H]2c3ccccc3Cc3ccc(F)cc3[C@H]21` [36b, [(2R,3aR,12bS)-1-acetyl-11-fluoro-1,2,3,3a,8,12b-hexahydrodibenzo[3,4:6,7]-cyclohepta[1,2-b]pyrrol-2-yl]-N,N-dimethylmethanamine] showed an IC50 of 3.89 µM.
`CN(C)C[C@H]1C[C@@H]2c3ccccc3Cc3ccc(F)cc3[C@H]2N1` [37a, [(2R,3aR,12bS)-11-fluoro-1,2,3,3a,8,12b-hexahydrodibenzo[3,4:6,7]cyclohepta-[1,2-b]pyr-rol-2-yl]-N,N-dimethylmethanamine] showed an IC50 of 0.00794 µM.
In the case of `OCCN1CCN(C[C@H]2C[C@@H]3c4ccccc4Cc4ccc(F)cc4[C@H]3N2)CC1` [43a, 2-(4-{[(2R,3aR,12bS)-11-fluoro-1,2,3,3a,8,12b-hexahydrodibenzo[3,4:6,7]-cyclohepta[1,2-b]pyrrol-2-yl]methyl}-1-piperazinyl)ethanol], the IC50 is reported as over 10 µM.
With `CN1C[C@@H]2C[C@@H]3c4ccccc4Cc4ccc(F)cc4[C@H]3N2C1` [compound 1, (4aS,13bR,14aS)-6-fluoro-2-methyl-1,2,3,4a,9,13b,14,14a-octahydrodibenzo-[3′,4′:6′,7′]cyclohepta[1′,2′:4,5]pyrrolo[1,2-c]imidazole] the IC50 was 0.115 µM.
With `Fc1ccc2c(c1)[C@@H]1[C@H](C[C@H]3CNC(=S)N31)c1ccccc1C2` [compound 3, (4aS,13bR,14aS)-6-fluoro-1,4a,9,13b,14,14a-hexahydrodibenzo[3′,4′:6′,7′]cycloheta[1′,2′:4,5]pyrrolo[1,2-c]imidazole-3(2H)-thione] the “NET Reuptake Inhibition” value was 5.24.
With `CN1CC(=O)N2[C@@H](C[C@@H]3c4ccccc4Cc4ccc(F)cc4[C@H]32)C1` [compound 4, (5aS,14bR,15aS)-7-fluoro-2-methyl-1,2,3,5a,10,14b,15,15a-octahydro-4H-dibenzo[3′,4′:6′,7′]cyclohepta[1′,2′:4,5]pyrrolo[1,2-a]pyrazin-4-one] the “NET Reuptake Inhibition” value was under 5.
With `CN(C)C[C@H]1C[C@@H]2c3ccccc3Cc3ccc(F)cc3[C@H]2N1C` [compound 5, [(2R,3aR,12bS)-11-fluoro-1-methyl-1,2,3,3a,8,12b-hexahydrodibenzo[3,4:6,7]-cyclohepta[1,2-b]pyrrol-2-yl]-N,N-dimethylmethanamine] the IC50 was 0.288 µM.
For `CN1C[C@H]2C[C@@H]3c4ccccc4Cc4ccc(F)cc4[C@H]3N2C1=O` [compound 7, (4aS,13bR,14aR)-6-fluoro-2-methyl-1,4a,9,13b,14,14a-hexahydrodibenzo-[3′,4′:6′,7′]cyclohepta[1′,2′:4,5]pyrrolo[1,2-c]imidazol-3(2H)-one], the IC50 was 0.891 µM.
With `Fc1ccc2c(c1)[C@@H]1[C@H](C[C@@H]3CNC(=S)N31)c1ccccc1C2` [compound 8, (4aS,13bR,14aR)-6-fluoro-1,4a,9,13b,14,14a-hexahydrodibenzo[3′,4′:6′,7′]-cyclohepta[1′,2′:4,5]pyrrolo[1,2-c]imidazole-3(2H)-thione] the “NET Reuptake Inhibition” value was 5.66.
For `CSC1=NC[C@H]2C[C@@H]3c4ccccc4Cc4ccc(F)cc4[C@H]3N12` [compound 9, (4aS,13bR,14aR)-6-fluoro-3-(methylsulfanyl)-1,4a,9,13b,14,14a-hexahydrodibenzo[3′,4′:6′,7′]cyclohepta[1′,2′:4,5]pyrrolo[1,2-c]imidazole], the IC50 was 3.98 µM.
`COCC(=O)N1[C@@H](CN(C)C)C[C@@H]2c3ccccc3Cc3ccc(F)cc3[C@H]21` [compound 10, [(2R,3aR,12bS)-11-fluoro-1-(methoxyacetyl)-1,2,3,3a,8,12b-hexahydrodibenzo-[3,4:6,7]cyclohepta[1,2-b]pyrrol-2-yl]-N,N-dimethylmethanamine] showed an IC50 of 4.79 µM.
With `O=C1CNC[C@H]2C[C@@H]3c4ccccc4Cc4ccc(F)cc4[C@H]3N12` [compound 12, (5aS,14bR,15aR)-7-fluoro-1,2,3,5a,10,14b,15,15a-octahydro-4H-dibenzo[3′,4′:6′,7′]cyclohepta[1′,2′:4,5]pyrrolo[1,2-a]pyrazin-4-one] the IC50 was 3.47 µM.
Work on `O=C1NC[C@@H]2C[C@@H]3c4ccccc4Cc4ccc(F)cc4[C@H]3N12` [compound 15, (4aS,13bR,14aS)-6-fluoro-1,4a,9,13b,14,14a-hexahydrodibenzo[3′,4′:6′,7′]-cyclohepta[1′,2′:4,5]pyrrolo[1,2-c]imidazol-3(2H)-one] yielded an IC50 of 2.4 µM.
Work on `CN1C[C@@H]2C[C@@H]3c4ccccc4Cc4ccc(F)cc4[C@H]3N2C1=O` [compound 16, (4aS,13bR,14aS)-6-fluoro-2-methyl-1,4a,9,13b,14,14a-hexahydrodibenzo-[3′,4′:6′,7′]cyclohepta[1′,2′:4,5]pyrrolo[1,2-c]imidazol-3(2H)-one] yielded an IC50 of over 10 µM.
In the case of `CN(C)C[C@H]1C[C@@H]2c3ccccc3Oc3ccc(F)cc3[C@H]2N1` [compound 17, [(2R,3aR,12bS)-11-fluoro-2,3,3a,12b-tetrahydro-1H-dibenzo[2,3:6,7]oxepino[4,5-b]pyrrol-2-yl]-N,N-dimethylmethanamine], the IC50 is reported as 0.00741 µM.
With `OCCN1CCN(C[C@H]2C[C@@H]3c4ccccc4Oc4ccc(F)cc4[C@H]3N2)CC1` [compound 19, 2-(4-{[(2R,3aR,12bS)-11-fluoro-2,3,3a,12b-tetrahydro-1H-dibenzo[2,3:6,7]-oxepino[4,5-b]pyrrol-2-yl]methyl}-1-piperazinyl)ethanol] the IC50 was over 10 µM.
In the case of `OC1CCN(C[C@H]2C[C@@H]3c4ccccc4Oc4ccc(F)cc4[C@H]3N2)C1` (stereo partly drawn) [compound 20, 1-{[(2R,3aR,12bS)-11-fluoro-2,3,3a,12b-tetrahydro-1H-dibenzo[2,3:6,7]oxepino-[4,5-b]pyrrol-2-yl]methyl}-3-pyrrolidinol], the IC50 is reported as 0.417 µM.
With `CN(C)C[C@@H]1C[C@@H]2c3ccccc3Cc3ccc(F)cc3[C@H]2S1(=O)=O` [compound 22, [(2S,3aR,12bS)-11-fluoro-1,1-dioxido-3,3a,8,12b-tetrahydro-2H-dibenzo[3,4:6,7]-cyclohepta[1,2-b]thien-2-yl]-N,N-dimethylmethanamine] the IC50 was 4.79 µM.
In the case of `CN(C)C[C@H]1C[C@@H]2c3ccccc3Cc3ccc(F)cc3[C@H]2S1` [compound 23, [(2R,3aR,12bS)-11-fluoro-3,3a,8,12b-tetrahydro-2H-dibenzo[3,4:6,7]cyclohepta-[1,2-b]thien-2-yl]-N,N-dimethylmethanamine], the IC50 is reported as 0.0282 µM.
In the case of `CN(C)C[C@@H]1C[C@@H]2c3ccccc3Cc3ccc(F)cc3[C@H]2[S@@+]1[O-]` [compound 26, [(2S,3aR,12bS)-11-fluoro-1-oxido-3,3a,8,12b-tetrahydro-2H-dibenzo[3,4:6,7]-cyclohepta[1,2-b]thien-2-yl]-N,N-dimethylmethanamine], the IC50 is reported as over 10 µM.
In the case of `CN(C)[C@@H]1CO[C@H]2c3cc(F)ccc3Cc3ccccc3[C@H]2C1` [compound 32, (3S,4aR,13bR)-12-fluoro-N,N-dimethyl-2,3,4,4a,9,13b-hexahydrodibenzo[3,4:6,7]-cyclohepta[1,2-b]pyran-3-amine], the IC50 is reported as 0.0195 µM.
`CNC[C@H]1C[C@@H]2c3ccccc3Cc3ccc(F)cc3[C@H]2N1C=O` [compound 38, (2R,3aR,12bS)-11-fluoro-2-[(methylamino)methyll]-3,3a,8,12b-tetrahydrodibenzo-[3,4: 6,7]-cyclohepta[1,2-b]pyrrole-1(2H)-carbaldehyde] showed an IC50 of 0.49 µM.
`CN(C)C[C@H]1C[C@@H]2c3ccccc3Cc3ccc(F)cc3[C@H]2N1CCO` [compound 39, 2-((2R,3aR,12bS)-2-[(dimethylamino)methyl]-11-fluoro-3,3a,8,12b-tetrahydrodibenzo[3,4:6,7]cyclohepta[1,2-b]pyrrol-1(2H)-yl)ethanol] showed an IC50 of 0.126 µM.
With `COCCN1[C@@H](CN(C)C)C[C@@H]2c3ccccc3Cc3ccc(F)cc3[C@H]21` [compound 40, [(2R,3aR,12bS)-11-Fluoro-1-(2-methoxyethyl)-1,2,3,3a,8,12b-hexahydrodibenzo-[3,4:6,7]-cyclohepta[1,2-b]pyrrol-2-yl]-N,N-dimethylmethanamine] the IC50 was 0.479 µM.
For `Fc1ccc2c(c1)[C@H]1N[C@@H](CN3CCOCC3)C[C@@H]1c1ccccc1C2` [compound 42, (2R,3aR,12bS)-11-fluoro-2-(4-morpholinylmethyl)-1,2,3,3a,8,12b-hexahydrodibenzo[3,4:6,7]cyclohepta[1,2-b]pyrrole], the IC50 was 5.5 µM.
`COC(=O)N1[C@@H](CN(C)C)CC[C@@H]2c3ccccc3Cc3ccc(F)cc3[C@H]21` [compound 45, Methyl(2R,4aR,13bS)-2-[(dimethylamino)methyl]-12-fluoro-2,3,4,4a,9,13b-hexahydro-1H-dibenzo[3,4:6,7]cyclohepta[1,2-b]pyridine-1-carboxylate] gave an IC50 of 0.794 µM.
`CNC[C@H]1CC[C@@H]2c3ccccc3Cc3ccc(F)cc3[C@H]2O1` [compound 46, [(2R,4aR,13bS)-12-fluoro-2,3,4,4a,9,13b-hexahydrodibenzo[3,4:6,7]cyclohepta-[1,2-b]pyran-2-yl]-N-methylmethanamine] showed an IC50 of 0.398 µM.
